# Assay results reported in patent US20050090529A1, “3,5 Disubstituted indazole compounds with nitrogen-bearing 5-membered heterocycles, pharmaceutical compositions, and methods for mediating or inhibiting cell proliferation” (PFIZER INC, priority 2003, published 2005).
# System: Cyclin-dependent kinase
# Experiment: Cyclin-dependent kinase inhibition, % inhibition at 10 nM (library Examples 99-270)
# Format: biochemical
# Settings: 10 nM compound
# Procedure, shortened: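 Radiometric filter assay: kinase transfers ³²P/³³P from 25 μM ATP to a protein substrate in pH 7.4 HEPES buffer with MgCl2, 2% DMSO, 30° C, 20 min. EDTA stop; substrate captured on nitrocellulose or phosphocellulose membrane, washed with phosphoric acid, counted by phosphorimager.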
row,SMILES,% Inhib @ 10 nM
1,"CCNCc1cncc(-c2ccc3[nH]nc(-c4ncc(C(=O)N5CCC6(CC5)CC(N5CCCC5)CO6)[nH]4)c3c2)c1C (centres unmarked) [Example 254, ethyl{[4-methyl-5-(3-{5-[(3-pyrrolidin-1-yl-1-oxa-8-azaspiro[4.5]dec-8-yl)carbonyl]-1H-imidazol-2-yl}-1H-indazol-5-yl)pyridin-3-yl]methyl}amine]",11%
2,CCNCc1cncc(-c2ccc3[nH]nc(-c4ncc(C(=O)N5CCC(Cc6ccccc6)C5)[nH]4)c3c2)c1C (centres unmarked) [Example 239],75%
3,"CCNCc1cncc(-c2ccc3[nH]nc(-c4ncc(C(=O)NCCc5ncn[nH]5)[nH]4)c3c2)c1C [Example 198, 2-(5-{5-[(ethylamino)methyl]-4-methylpyridin-3-yl}-1H-indazol-3-yl)-N-[2-(1H-1,2,4-triazol-5-yl)ethyl]-1H-imidazole-5-carboxamide]",55%
4,"CCNCc1cncc(-c2ccc3[nH]nc(-c4ncc(C(=O)NC(Cc5cc(C)no5)C5CC5)[nH]4)c3c2)c1C (centres unmarked) [Example 160, N-[1-cyclopropyl-2-(3-methylisoxazol-5-yl)ethyl]-2-(5-{5-[(ethylamino)methyl]-4-methylpyridin-3-yl}-1H-indazol-3-yl)-1H-imidazole-5-carboxamide]",48%
5,"CCNCc1cncc(-c2ccc3[nH]nc(-c4ncc(C(=O)N(C)Cc5cnn(-c6ccccc6)c5)[nH]4)c3c2)c1C [Example 225, 2-(5-{5-[(ethylamino)methyl]-4-methylpyridin-3-yl}-1H-indazol-3-yl)-N-methyl-N-[(1-phenyl-1H-pyrazol-4-yl)methyl]-1H-imidazole-5-carboxamide]",70%
6,"CCNCc1cncc(-c2ccc3[nH]nc(-c4ncc(C(=O)NCC5CCCO5)[nH]4)c3c2)c1C (centres unmarked) [Example 110, 2-(5-{5-[(ethylamino)methyl]-4-methylpyridin-3-yl}-1H-indazol-3-yl)-N-(tetrahydrofuran-2-ylmethyl)-1H-imidazole-5-carboxamide]",66%
7,"CCNCc1cncc(-c2ccc3[nH]nc(-c4ncc(C(=O)N5CCC(C(=O)c6ccc(F)cc6)CC5)[nH]4)c3c2)c1C [Example 142, (1-{[2-(5-{5-[(ethylamino)methyl]-4-methylpyridin-3-yl}-1H-indazol-3-yl)-1H-imidazol-5-yl]carbonyl}piperidin-4-yl)(4-fluorophenyl)methanone]",65%
8,CCNCc1cncc(-c2ccc3[nH]nc(-c4ncc(C(=O)NC/C=C(\C)CCC=C(C)C)[nH]4)c3c2)c1C [Example 157],28%
9,"CCNCc1cncc(-c2ccc3[nH]nc(-c4ncc(C(=O)N5CCC(C)(c6cccc(OC)c6)C5)[nH]4)c3c2)c1C (centres unmarked) [Example 197, ethyl({5-[3-(5-{[3-(3-methoxyphenyl)-3-methylpyrrolidin-1-yl]carbonyl}-1H-imidazol-2-yl)-1H-indazol-5-yl]-4-methylpyridin-3-yl}methyl)amine]",67%
10,"CCNCc1cncc(-c2ccc3[nH]nc(-c4ncc(C(=O)N5CCN(c6cccc7ccccc67)CC5)[nH]4)c3c2)c1C [Example 236, ethyl({4-methyl-5-[3-(5-{[4-(1-naphthyl)piperazin-1-yl]carbonyl}-1H-imidazol-2-yl)-1H-indazol-5-yl]pyridin-3-yl}methyl)amine]",74%
11,"CCNCc1cncc(-c2ccc3[nH]nc(-c4ncc(C(=O)N5CCC6CCCCC6C5)[nH]4)c3c2)c1C (centres unmarked) [Example 149, ethyl[(4-methyl-5-{3-[5-(octahydroisoquinolin-2(1H)-ylcarbonyl)-1H-imidazol-2-yl]-1H-indazol-5-yl}pyridin-3-yl)methyl]amine]",69%
12,CCNCc1cncc(-c2ccc3[nH]nc(-c4ncc(C(=O)N5CCN(CC(=O)N(C)C)CC5)[nH]4)c3c2)c1C [Example 182],40%
13,CCNCc1cncc(-c2ccc3[nH]nc(-c4ncc(C(=O)N5CCN(c6ccc(F)cc6F)CC5)[nH]4)c3c2)c1C [Example 230],74%
14,"CCNCc1cncc(-c2ccc3[nH]nc(-c4ncc(C(=O)N5CCC(c6cccnc6)C5)[nH]4)c3c2)c1C (centres unmarked) [Example 242, ethyl{[4-methyl-5-(3-{5-[(3-pyridin-3-ylpyrrolidin-1-yl)carbonyl]-1H-imidazol-2-yl}-1H-indazol-5-yl)pyridin-3-yl]methyl}amine]",66%
15,"CCNCc1cncc(-c2ccc3[nH]nc(-c4ncc(C(=O)NC5C6CC7CC(C6)CC5C7)[nH]4)c3c2)c1C (centres unmarked) [Example 126, N-2-adamantyl-2-(5-{5-[(ethylamino)methyl]-4-methylpyridin-3-yl}-1H-indazol-3-yl)-1H-imidazole-5-carboxamide]",89%
16,CCNCc1cncc(-c2ccc3[nH]nc(-c4ncc(C(=O)NCCn5cc(C(=O)NC(C)(C)C)nn5)[nH]4)c3c2)c1C [Example 251],27%
17,"CCNCc1cncc(-c2ccc3[nH]nc(-c4ncc(C(=O)N5CCCC5c5cccc6ccccc56)[nH]4)c3c2)c1C (centres unmarked) [Example 195, ethyl({4-methyl-5-(3-(5-{[2-(1-naphthyl)pyrrolidin-1-yl]carbonyl}-1H-imidazol-2-yl)-1 H-indazol-5-yl]pyridin-3-yl]methyl)amine]",32%
18,CCNCc1cncc(-c2ccc3[nH]nc(-c4ncc(C(=O)N5CCN(c6ccccc6C#N)CC5)[nH]4)c3c2)c1C [Example 147],69%
19,"CCNCc1cncc(-c2ccc3[nH]nc(-c4ncc(C(=O)N[C@H](c5ccccc5)[C@@H](O)c5ccccc5)[nH]4)c3c2)c1C [Example 105, 2-(5-{5-[(ethylamino)methyl]-4-methylpyridin-3-yl}-1H-indazol-3-yl)-N-[(1R,2S)-2-hydroxy-1,2-diphenylethyl]-1H-imidazole-5-carboxamide]",74%
20,"C=CCN(CC=C)CCN1CCN(C(=O)c2cnc(-c3n[nH]c4ccc(-c5cncc(CNCC)c5C)cc34)[nH]2)CC1 [Example 146, diallyl[2-(4-{[2-(5-{5-[(ethylamino)methyl]-4.-methylpyridin-3-yl}-1H-indazol-3-yl)-1H-imidazol-5-yl]carbonyl}piperazin-1-yl)ethyl]amine]",22%
21,"CCNCc1cncc(-c2ccc3[nH]nc(-c4ncc(C(=O)N5CCC(c6cccc(O)c6)CC5)[nH]4)c3c2)c1C [Example 191, 3-(1-{[2-(5-{5-[(ethylamino)methyl]-4-methylpyridin-3-yl}-1H-indazol-3-yl)-1H-imidazol-5-yl]carbonyl}piperidin-4-yl)phenol]",74%
22,"CCNCc1cncc(-c2ccc3[nH]nc(-c4ncc(C(=O)NCc5ccc(S(C)(=O)=O)cc5)[nH]4)c3c2)c1C [Example 202, 2-(5-{5-[(ethylamino)methyl]-4-methylpyridin-3-yl}-1H-indazol-3-yl)-N-[4-(methylsulfonyl)benzyl]-1H-imidazole-5-carboxamide]",49%
23,"CCNCc1cncc(-c2ccc3[nH]nc(-c4ncc(C(=O)N5CCCC(c6nc7ccccc7[nH]6)C5)[nH]4)c3c2)c1C (centres unmarked) [Example 183, ({5-[3-(5-{[3-(1H-benzimidazol-2-yl)piperidin-1-yl]carbonyl}-1H-imidazol-2-yl)-1H-indazol-5-yl]-4-methylpyridin-3-yl}methyl)ethylamine]",42%
